{"source": "paper PMC9354243", "about": "“The Role of Tryptophan in π Interactions in Proteins: An Experimental Approach” (Journal of the American Chemical Society, 2022)", "test_system": "LmrR variants", "assay": "SPR of the LmrR-Dau interaction at 10 and 25 °C, all LmrR variants", "type": "binding, Lactococcus lactis", "protocol": "The thermodynamics of the LmrR–Dau interaction was recently reported to be mostly entropy driven.[21] To investigate this point in more detail the temperature dependence of the LmrR–Dau interaction was studied by surface plasmon resonance (SPR) experiments at 10 and 25 °C. […] The average ΔΔG from 6 LmrR variants is around 0.1 kJ/mol. These values imply that the temperature effects on the ΔGs are negligible, which would be in line with a low contribution of entropic factors to the Dau–LmrR interaction.\nRibU. […]\nMALDI-TOF. […] Spots were measured using a Voyager DE-PRO MALDI-TOF (time of flight) instrument (Applied Biosystems). The incorporation efficiency of Trp analog was calculated after measuring the peak areas of the peptide conta ining either Trp or Trp analog.\nBinding assays - surface plasmon resonance (SPR). LmrR and mutants were immobilized on a CM5 sensor chip and binding of drugs was monitored using a BIACORE3000 system. The binding responses of Dau and RBF to LmrR were measured in triplicate at both 25 °C and 10 °C, in HBS-EP running buffer (10 mM HEPES, pH 7.4, 150 mM NaCl, 50 µM EDTA, and 0.005% surfactant P-20). The binding responses were corrected by subtracting the response measured in the control lane, to which a […]"}
{"smiles": "COc1cccc2c1C(=O)c1c(O)c3c(c(O)c1C2=O)C[C@@](O)(C(C)=O)C[C@@H]3O[C@H]1C[C@H](N)[C@H](O)[C@H](C)O1", "note": "[Dau, Daunomycin]", "values": [{"measurement": "Fold increase of binding affinity at lower temperature", "setting": "10 °C versus 25 °C, all LmrR variants", "result": "1.4–3.5 fold"}, {"measurement": "Average ΔΔG (ΔG10 °C – ΔG25 °C)", "setting": "average from 6 LmrR variants", "result": "around 0.1 kJ/mol"}]}
